The text below walks through data of patent publication US11459315B2, “Modulators of methyl modifying enzymes, compositions and uses thereof” (Constellation Pharmaceuticals, Inc., priority 2017, dated 2022).

Like-named read-outs stand apart in the source and are kept apart here.

For assay [1], the system named is H3K27me3 mark in HeLa cells (EZH2). The assay can be described thus: H3K27me3 Alpha Hela Assay (AlphaLISA). It is filed as cell-based. Particulars: HeLa cell assay, Table 3 classes, read-out: EC50 Cellular Activity. In outline:
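HeLa cells (1,000/well) treated with ten 3-fold compound doses for 72 h at 37 °C; lysates extracted and H3K27me3 detected by AlphaLISA with anti-K27me3 acceptor beads, biotinylated anti-H3 (3 nM) and streptavidin donor beads. EC50 from DMSO-normalized dose-response curves; duplicate plate assessed viability.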

The next assay addresses PRC2 containing wt EZH2 (Homo sapiens (Human), UniProt Q15910). The assay can be described thus: EZH2 residence time assay (100-fold dilution of pre-formed enzyme-inhibitor complex). The assay is classed as biochemical. How it is done:
EZH2 residence time assay: Compound residence times were assessed by monitoring the recovery of enzyme activity following a 100-fold dilution of pre-formed enzyme-inhibitor complex (dilution reaction), and comparing it to the activity of an undiluted control with the same final concentrations of all reagents (control reaction). Enzyme activity was measured by incorporation of ^3H-SAM into a biotinylated H3 peptide. […] For the control reaction, 0.202 nM PRC2 was pre-incubated with 1 μM activating peptide, 1.01 μM SAM, 1.01 μM ^3H-SAM, and compound at 6.06 times its Ki for 2 h in 138.6 μL of buffer, then the reaction was initiated by the addition of 1.4 μL 500 μM substrate peptide in water. Reactions were quenched at various time points spanning up to 10 hours, by transferring 8 μL aliquots from the reaction vessel to a plate containing 8 μL per well of STOP solution (50 mM Tris pH 8.5, 200 mM EDTA, 2 mM SAH). After the last time point, 12 μL of the quenched solutions were transferred to a streptavidin coated FlashPlate (PerkinElmer) containing 40 μL per well of STOP solution, incubated 1-8 h, washed, and read in a TopCount plate reader (PerkinElmer). A custom script was used to fit control reaction progress data to a straight line and dilution reaction progress data:
Where y is the product formed, t is the reaction time, vi is the initial velocity, vs is the steady state velocity, and kobs is the rate constant for the transition from the initial velocity phase of the curve to the steady state velocity phase of the curve. In fitting the dilution reaction progress data, vs was constrained to the slope of the line fitted to the control reaction progress data. The fitted value of kobs was then transformed into residence time:
Where τ is residence time, Ki is the inhibition constant, [EI] is the calculated equilibrium concentration of enzyme-inhibitor complex, [E] is the calculated equilibrium concentration of free enzyme, and [I] is the calculated equilibrium concentration of free inhibitor.

Chain of PRC2 containing wt EZH2 (Q15910 whole entry): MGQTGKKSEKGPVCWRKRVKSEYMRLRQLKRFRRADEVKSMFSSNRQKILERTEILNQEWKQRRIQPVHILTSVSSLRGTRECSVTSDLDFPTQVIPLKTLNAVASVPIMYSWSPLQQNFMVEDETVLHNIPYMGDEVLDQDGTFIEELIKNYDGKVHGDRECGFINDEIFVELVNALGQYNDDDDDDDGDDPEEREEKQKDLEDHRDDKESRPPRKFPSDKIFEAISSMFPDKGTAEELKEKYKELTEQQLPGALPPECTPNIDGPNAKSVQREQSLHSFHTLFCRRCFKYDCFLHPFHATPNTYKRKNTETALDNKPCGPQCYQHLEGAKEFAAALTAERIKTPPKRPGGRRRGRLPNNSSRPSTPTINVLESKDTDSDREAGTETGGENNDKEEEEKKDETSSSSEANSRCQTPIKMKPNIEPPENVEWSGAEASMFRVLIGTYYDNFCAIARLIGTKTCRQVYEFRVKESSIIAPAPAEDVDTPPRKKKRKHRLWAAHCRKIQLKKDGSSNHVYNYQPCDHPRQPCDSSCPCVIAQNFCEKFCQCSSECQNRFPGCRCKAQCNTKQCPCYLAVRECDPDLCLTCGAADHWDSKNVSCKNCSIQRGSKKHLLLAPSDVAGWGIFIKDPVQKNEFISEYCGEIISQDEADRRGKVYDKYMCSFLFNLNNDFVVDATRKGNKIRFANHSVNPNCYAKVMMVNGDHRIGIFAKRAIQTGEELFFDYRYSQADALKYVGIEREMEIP
Chain of PRC2 containing wt EZH2 (O75530 whole entry partner): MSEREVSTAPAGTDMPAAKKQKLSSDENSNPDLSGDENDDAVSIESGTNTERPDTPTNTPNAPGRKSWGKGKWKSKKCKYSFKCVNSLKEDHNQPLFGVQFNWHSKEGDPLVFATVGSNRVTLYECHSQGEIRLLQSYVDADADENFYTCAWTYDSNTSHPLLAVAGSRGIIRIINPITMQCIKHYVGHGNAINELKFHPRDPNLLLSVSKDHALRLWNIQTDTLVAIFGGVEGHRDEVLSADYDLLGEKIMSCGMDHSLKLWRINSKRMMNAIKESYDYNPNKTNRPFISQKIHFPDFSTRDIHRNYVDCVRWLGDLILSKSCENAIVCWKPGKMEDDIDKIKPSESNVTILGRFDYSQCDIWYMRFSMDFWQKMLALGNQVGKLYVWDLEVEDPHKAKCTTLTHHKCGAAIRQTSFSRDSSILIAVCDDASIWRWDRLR
Chain of PRC2 containing wt EZH2 (Q15022 whole entry partner): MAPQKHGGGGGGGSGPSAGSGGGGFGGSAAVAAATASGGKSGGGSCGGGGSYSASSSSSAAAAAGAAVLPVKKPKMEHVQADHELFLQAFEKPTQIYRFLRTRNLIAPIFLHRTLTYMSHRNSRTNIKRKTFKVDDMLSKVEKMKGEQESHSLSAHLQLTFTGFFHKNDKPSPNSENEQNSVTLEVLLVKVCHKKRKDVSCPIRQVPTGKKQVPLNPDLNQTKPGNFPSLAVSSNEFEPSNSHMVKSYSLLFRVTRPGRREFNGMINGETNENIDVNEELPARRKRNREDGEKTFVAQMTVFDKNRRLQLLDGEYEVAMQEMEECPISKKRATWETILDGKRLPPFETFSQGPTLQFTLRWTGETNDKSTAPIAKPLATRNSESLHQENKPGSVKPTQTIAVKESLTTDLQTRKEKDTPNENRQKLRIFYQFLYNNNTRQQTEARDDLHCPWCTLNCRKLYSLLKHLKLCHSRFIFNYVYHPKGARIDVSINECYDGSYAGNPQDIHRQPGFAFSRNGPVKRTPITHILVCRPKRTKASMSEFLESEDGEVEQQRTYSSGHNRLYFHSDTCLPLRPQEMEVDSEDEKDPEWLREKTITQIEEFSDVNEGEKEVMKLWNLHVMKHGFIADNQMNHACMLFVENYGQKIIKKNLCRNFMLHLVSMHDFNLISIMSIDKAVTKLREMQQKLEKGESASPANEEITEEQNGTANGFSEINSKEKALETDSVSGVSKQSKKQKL
Chain of PRC2 containing wt EZH2 (Q09028 whole entry partner): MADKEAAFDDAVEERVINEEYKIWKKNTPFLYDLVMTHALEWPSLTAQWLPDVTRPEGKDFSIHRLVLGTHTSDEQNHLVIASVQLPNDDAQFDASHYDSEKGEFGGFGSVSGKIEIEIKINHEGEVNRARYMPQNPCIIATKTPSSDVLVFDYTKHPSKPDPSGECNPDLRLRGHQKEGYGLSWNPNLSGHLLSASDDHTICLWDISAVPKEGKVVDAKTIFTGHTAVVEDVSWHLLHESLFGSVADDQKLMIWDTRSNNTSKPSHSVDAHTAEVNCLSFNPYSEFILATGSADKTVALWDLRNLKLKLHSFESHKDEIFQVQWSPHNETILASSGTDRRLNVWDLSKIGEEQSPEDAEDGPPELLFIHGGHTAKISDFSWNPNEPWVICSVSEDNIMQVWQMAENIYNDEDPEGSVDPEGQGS
Chain of PRC2 containing wt EZH2 (Q6ZN18 whole entry partner): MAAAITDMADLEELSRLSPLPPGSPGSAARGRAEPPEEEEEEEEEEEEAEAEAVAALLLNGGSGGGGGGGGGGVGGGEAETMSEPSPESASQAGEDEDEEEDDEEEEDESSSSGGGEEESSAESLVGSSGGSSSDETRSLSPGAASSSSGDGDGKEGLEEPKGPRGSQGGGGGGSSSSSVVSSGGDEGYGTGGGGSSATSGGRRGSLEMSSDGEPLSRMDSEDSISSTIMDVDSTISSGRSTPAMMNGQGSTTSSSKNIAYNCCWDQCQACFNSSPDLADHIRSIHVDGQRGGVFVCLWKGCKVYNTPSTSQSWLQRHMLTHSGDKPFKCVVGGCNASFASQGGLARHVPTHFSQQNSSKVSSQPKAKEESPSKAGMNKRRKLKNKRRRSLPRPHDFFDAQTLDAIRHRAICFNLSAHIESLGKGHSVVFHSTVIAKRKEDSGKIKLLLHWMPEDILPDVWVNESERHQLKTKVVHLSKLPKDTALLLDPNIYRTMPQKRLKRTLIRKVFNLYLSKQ

Consider `Cc1cc(Cl)c(CNC(=O)c2c(C)n([C@H](C)C3CCC(NC4(C)COC4)CC3)c3ccccc23)c(=O)[nH]1` (single isomer, unassigned) [drawing 202], for which, in assay [1], the 50% effective concentration (EC50) fell in the range of 5 to 25 nM. Also, the “residence time” value at PRC2 containing wt EZH2 is given as “B (a t value of greater than 5 hours but less or equal than 35 hours)”.

Regarding `Cc1cc(C)c(CNC(=O)c2c(C)n([C@H](C)C3CCC(NC4(C)COC4)CC3)c3ccccc23)c(=O)[nH]1` (single isomer, unassigned) [drawing 203], the EC50 in assay [1] was 25 to 125 nM. Also, the “residence time” value at PRC2 containing wt EZH2 is given as “D (a t value of less or equal than 0.5 hours)”.

Regarding `Cc1cc(C)c(CNC(=O)c2c(C)n([C@H](C)C3CCC(NC4(C)COC4)CC3)c3ccccc23)c(=O)[nH]1` (single isomer, unassigned) [drawing 204], in assay [1], the half-maximal effective concentration (EC50) was less than 5 nM. At PRC2 containing wt EZH2, the “residence time” value is recorded as “B (a t value of greater than 5 hours but less or equal than 35 hours)”.

In the case of `CSc1cc(C)[nH]c(=O)c1CNC(=O)c1c(C)n([C@H](C)C2CCC(NC3(C)COC3)CC2)c2ccccc12` (single isomer, unassigned) [drawing 205], in assay [1] (Homo sapiens, HeLa), the EC50 was less than 5 nM. Besides, at PRC2 containing wt EZH2, the “residence time” value is recorded as “A (value of greater than 35 hours)”.

In the case of `CSc1cc(C)[nH]c(=O)c1CNC(=O)c1c(C)n([C@H](C)C2CCC(NC3(C)COC3)CC2)c2ccccc12` (single isomer, unassigned) [drawing 206], the EC50 in assay [1] was 5 to 25 nM. Moreover, at PRC2 containing wt EZH2, the “residence time” value was “B (a t value of greater than 5 hours but less or equal than 35 hours)”.

For the compound `COc1cc(C)[nH]c(=O)c1CNC(=O)c1c(C)n([C@H](C)C2CCC(NC3COC3)CC2)c2ccccc12` (single isomer, unassigned) [drawing 207], the 50% effective concentration (EC50) in assay [1] is more than 125 nM. In addition, the residence time on PRC2 containing wt EZH2 (read-out: Residence Time) is less than 30 min.

Consider `COc1cc(C)[nH]c(=O)c1CNC(=O)c1c(C)n([C@H](C)C2CCC(NC3COC3)CC2)c2ccccc12` (single isomer, unassigned) [drawing 208], for which the EC50 in assay [1] lay within 25 to 125 nM. Moreover, the “residence time” value at PRC2 containing wt EZH2 is given as “C (a t value of greater than 0.5 hours but less or equal than 5 hours)”.

For the compound `Cc1cc(C)c(CNC(=O)c2c(C)n([C@H](C)C3CCC(NC4COC4)CC3)c3ccccc23)c(=O)[nH]1` (single isomer, unassigned) [drawing 209], the EC50 in assay [1] is more than 125 nM. On PRC2 containing wt EZH2 (read-out: Residence Time), the residence time is less than 30 min.

`Cc1cc(C)c(CNC(=O)c2c(C)n([C@H](C)C3CCC(NC4COC4)CC3)c3ccccc23)c(=O)[nH]1` (single isomer, unassigned) [drawing 210]: the EC50 in assay [1] lay in the range of 25 to 125 nM. Further, at PRC2 containing wt EZH2, the “residence time” value is “C (a t value of greater than 0.5 hours but less or equal than 5 hours)”.

In the case of `Cc1cc(Cl)c(CNC(=O)c2c(C)n([C@H](C)C3CCC(NC4COC4)CC3)c3ccccc23)c(=O)[nH]1` (single isomer, unassigned) [drawing 211], the EC50 in assay [1] was more than 125 nM. Also, at PRC2 containing wt EZH2 (read-out: Residence Time), the residence time is less than 30 min.

For the compound `Cc1cc(Cl)c(CNC(=O)c2c(C)n([C@H](C)C3CCC(NC4COC4)CC3)c3ccccc23)c(=O)[nH]1` (single isomer, unassigned) [drawing 212], the concentration giving a half-maximal response (EC50) in assay [1] was 25 to 125 nM. In addition, the “residence time” value at PRC2 containing wt EZH2 is on record as “C (a t value of greater than 0.5 hours but less or equal than 5 hours)”.

As for `CSc1cc(C)[nH]c(=O)c1CNC(=O)c1c(C)n([C@H](C)C2CCC(NC3COC3)CC2)c2ccccc12` (single isomer, unassigned) [drawing 213], the 50% effective concentration (EC50) in assay [1] is less than 5 nM. The “residence time” value on PRC2 containing wt EZH2 is “A (value of greater than 35 hours)”.

With `CSc1cc(C)[nH]c(=O)c1CNC(=O)c1c(C)n([C@H](C)C2CCC(NC3COC3)CC2)c2ccccc12` (single isomer, unassigned) [drawing 214], the EC50 in assay [1] lay within 25 to 125 nM. For the same compound, the “residence time” value at PRC2 containing wt EZH2 was “C (a t value of greater than 0.5 hours but less or equal than 5 hours)”.

As for `COc1cc(C)[nH]c(=O)c1CNC(=O)c1c(C)n([C@H](C)C2CCC(N3CC(OC)C3)CC2)c2ccccc12` (single isomer, unassigned) [drawing 217], the EC50 in assay [1] (Homo sapiens, HeLa) was more than 125 nM. On PRC2 containing wt EZH2, this compound gave a residence time of less than 30 min.

In the case of `COc1cc(C)[nH]c(=O)c1CNC(=O)c1c(C)n([C@H](C)C2CCC(N3CC(OC)C3)CC2)c2ccccc12` (single isomer, unassigned) [drawing 218], the concentration for a half-maximal effect (EC50) in assay [1] was more than 125 nM. The “residence time” value on PRC2 containing wt EZH2 was “C (a t value of greater than 0.5 hours but less or equal than 5 hours)”.

As to `COC1CN(C2CCC([C@@H](C)n3c(C)c(C(=O)NCc4c(SC)cc(C)[nH]c4=O)c4ccccc43)CC2)C1` (single isomer, unassigned) [drawing 219], the EC50 in assay [1] (Homo sapiens, HeLa) was less than 5 nM. For the same compound, the “residence time” value on PRC2 containing wt EZH2 was “A (value of greater than 35 hours)”.

For `COC1CN(C2CCC([C@@H](C)n3c(C)c(C(=O)NCc4c(SC)cc(C)[nH]c4=O)c4ccccc43)CC2)C1` (single isomer, unassigned) [drawing 220], the concentration giving a half-maximal response (EC50) in assay [1] lay in the range of 5 to 25 nM. Also, the “residence time” value on PRC2 containing wt EZH2 is on record as “C (a t value of greater than 0.5 hours but less or equal than 5 hours)”.

Take `Cc1cc(Cl)c(CNC(=O)c2c(C)n([C@H](C)C3OCC(NC(C)(C)C)CO3)c3ccccc23)c(=O)[nH]1` (single isomer, unassigned) [drawing 221]: the EC50 in assay [1] (Homo sapiens, HeLa) lay within 5 to 25 nM. In addition, the residence time at PRC2 containing wt EZH2 (read-out: Residence Time) is 30 to 300 min.

For `CSc1cc(C)[nH]c(=O)c1CNC(=O)c1c(C)n([C@H](C)C2OCC(NC(C)(C)C)CO2)c2ccccc12` (single isomer, unassigned) [drawing 223], the EC50 in assay [1] was 25 to 125 nM. For the same compound, at PRC2 containing wt EZH2, the “residence time” value is given as “D (a t value of less or equal than 0.5 hours)”.

On to `CSc1cc(C)[nH]c(=O)c1CNC(=O)c1c(C)n([C@H](C)C2OCC(NC(C)(C)C)CO2)c2ccccc12` (single isomer, unassigned) [drawing 224], for which the concentration for a half-maximal effect (EC50) in assay [1] was less than 5 nM. The “residence time” value on PRC2 containing wt EZH2 is given as “A (value of greater than 35 hours)”.

In the case of `Cc1cc(Cl)c(CNC(=O)c2c(C)n([C@H](C)C3OCC(NC4(C)COC4)CO3)c3ccccc23)c(=O)[nH]1` (single isomer, unassigned) [drawing 225], the concentration giving a half-maximal response (EC50) in assay [1] is more than 125 nM. Besides, on PRC2 containing wt EZH2, the “residence time” value is listed as “D (a t value of less or equal than 0.5 hours)”.

For the compound `Cc1cc(Cl)c(CNC(=O)c2c(C)n([C@H](C)C3OCC(NC4(C)COC4)CO3)c3ccccc23)c(=O)[nH]1` (single isomer, unassigned) [drawing 226], in assay [1], the EC50 lay within 5 to 25 nM. The “residence time” value at PRC2 containing wt EZH2 is “B (a t value of greater than 5 hours but less or equal than 35 hours)”.

As for `CSc1cc(C)[nH]c(=O)c1CNC(=O)c1c(C)n([C@H](C)C2OCC(NC3(C)COC3)CO2)c2ccccc12` (single isomer, unassigned) [drawing 227], the EC50 in assay [1] was less than 5 nM. In addition, at PRC2 containing wt EZH2, the “residence time” value is recorded as “A (value of greater than 35 hours)”.

Turning to `CSc1cc(C)[nH]c(=O)c1CNC(=O)c1c(C)n([C@H](C)C2OCC(NC3(C)COC3)CO2)c2ccccc12` (single isomer, unassigned) [drawing 228], the EC50 in assay [1] is more than 125 nM. For the same compound, the “residence time” value at PRC2 containing wt EZH2 is “D (a t value of less or equal than 0.5 hours)”.

For the compound `Cc1cc(Cl)c(CNC(=O)c2c(C)n([C@H](C)C3OCC(N(C)C)CO3)c3ccccc23)c(=O)[nH]1` (single isomer, unassigned) [drawing 229], the EC50 in assay [1] is more than 125 nM. In addition, the residence time on PRC2 containing wt EZH2 (read-out: Residence Time) was less than 30 min.

Turning to `Cc1cc(Cl)c(CNC(=O)c2c(C)n([C@H](C)C3OCC(N(C)C)CO3)c3ccccc23)c(=O)[nH]1` (single isomer, unassigned) [drawing 230], the EC50 in assay [1] fell in the range of 25 to 125 nM. Moreover, on PRC2 containing wt EZH2, the “residence time” value was “D (a t value of less or equal than 0.5 hours)”.

As for `CSc1cc(C)[nH]c(=O)c1CNC(=O)c1c(C)n([C@H](C)C2OCC(N(C)C)CO2)c2ccccc12` (single isomer, unassigned) [drawing 231], the concentration for a half-maximal effect (EC50) in assay [1] was more than 125 nM. The “residence time” value at PRC2 containing wt EZH2 is “D (a t value of less or equal than 0.5 hours)”.

As for `CSc1cc(C)[nH]c(=O)c1CNC(=O)c1c(C)n([C@H](C)C2OCC(N(C)C)CO2)c2ccccc12` (single isomer, unassigned) [drawing 232], in assay [1], the EC50 is less than 5 nM. In addition, on PRC2 containing wt EZH2, the “residence time” value is given as “B (a t value of greater than 5 hours but less or equal than 35 hours)”.

`COC1CCC([C@@H](C)n2c(C)c(C(=O)NCc3c(SC)cc(C)[nH]c3=O)c3ccccc32)CC1` (single isomer, unassigned) [drawing 248]: the EC50 in assay [1] is less than 5 nM. On PRC2 containing wt EZH2, this compound came in with a residence time of more than 2100 min.

For `CSc1cc(C)[nH]c(=O)c1CNC(=O)c1c(C)n([C@H](C)C2CCC(O)CC2)c2ccccc12` (single isomer, unassigned) [drawing 250], the EC50 in assay [1] (Homo sapiens, HeLa) was less than 5 nM. Further, the “residence time” value on PRC2 containing wt EZH2 is “B (a t value of greater than 5 hours but less or equal than 35 hours)”.
